The source of these data is article PMC4503722, “Novel Phenotypic Outcomes Identified for a Public Collection of Approved Drugs from a Publicly Accessible Panel of Assays” (PLoS ONE, 2015).

Read-outs that look alike come from different tables or passages of the source.

For series [1] the following is noted: FAERS, ref [45], cited from earlier work; for Adjusted Z-Score: Drug A with vs without methotrexate; for # of Specific AE Occurrence With Drug A With Drug B: with methotrexate; for # of Specific AE Occurrence With Drug A Without Drug B: without methotrexate.
Series [2] concerns DLD-1. Kind of series: cells. Format: cell-based. As to conditions: Homo sapiens.
The test system of series [3] is HeLa cells. As to the kind of experiment: cells. As to conditions: Homo sapiens, HeLa, read-out: CellCycle G2/M. It counts as cell-based.
Series [4] deals with NCI-H716 cells. As to the kind of experiment: cells. Format: cell-based, Human. The following applies: for EC50: Homo sapiens.
The subject of series [5] is nuclear β-catenin in C2C12 cells. Kind of series: cells. It counts as cell-based. As to conditions: Mus musculus.
Series [6] has as its system SW480. As to the kind of experiment: cells. It counts as cell-based. As to conditions: Homo sapiens.
The subject of series [7] is HCT116. As to the kind of experiment: cells. It counts as cell-based. The following applies: Homo sapiens.
In series [8] the test system is INS-1E cells. Kind of series: cells. It counts as cell-based, rat.
Series [9] concerns HCT116 cells treated with a GSK3β inhibitor. As to the kind of experiment: cells. Format: cell-based. The following applies: Homo sapiens.
For series [10], the system named is STC-1 cell line. It counts as cell-based, mouse. As to conditions: assay number 13.
The subject of series [11] is tonic K+ channel activity in INS-1E cells. Kind of series: cells. Format: cell-based, rat.
For series [12], the system named is INS-1E cells. It counts as cell-based, rat. As to conditions: assay number 9; 0.1 mM glucose.
In series [13] the test system is endothelial tube formation in co-cultures of ECFCs and ADSCs treated with VEGF. As to the kind of experiment: cells. It counts as cell-based, human. As to conditions: Homo sapiens.
In series [14] the test system is SNU-C1. As to the kind of experiment: cells. It counts as cell-based. The following applies: Homo sapiens.
In series [15] the target is T1, hFLT3 (Homo sapiens, UniProt P36888).
T1 construct: purchased Cerep (LANCE kinase assay platform, contract assay)
As to the kind of experiment: Cerep LANCE kinase assay hFLT3 (S1 assay 35). The following applies: kinase assay; read-out: FLT3. Format: biochemical.

In series [16] the test system is panel of 7 colon cancer cell lines. Kind of series: KRAS/Wnt synthetic lethal module: selectivity ratios across the colon cancer cell line panel (sub-modules). Format: cell-based.
Series [17] addresses T2, hJAK2 (Homo sapiens, UniProt O60674).
T2 construct: purchased Cerep (LANCE kinase assay platform, contract assay)
Kind of series: Cerep LANCE kinase assay hJAK2 (S1 assay 33). Format: biochemical. As to conditions: kinase assay; read-out: JAK2. On the technique in general: TR-FRET usually uses a lanthanide donor and a delayed reading to cut background.

Series [18] has as its target T3, hGSK3b (Homo sapiens, UniProt P49841).
T3 construct: purchased Cerep (LANCE kinase assay platform, contract assay)
Kind of series: Cerep LANCE kinase assay hGSK3b (S1 assay 34). Format: biochemical. The following applies: kinase assay; read-out: GSK3b.

Series [19] relates to HT-29. As to the kind of experiment: cells. The following applies: Homo sapiens. Format: cell-based.
In series [20] the test system is RKO. Kind of series: cells. Format: cell-based. The following applies: Homo sapiens, RKO.
Series [21] relates to Colo320. Kind of series: cells. Format: cell-based. The following applies: Homo sapiens.
In series [22] the target is T4, hKDR (Homo sapiens, UniProt P35968).
T4 construct: purchased Cerep (LANCE kinase assay platform, contract assay)
Kind of series: Cerep LANCE kinase assay hKDR (S1 assay 32). Format: biochemical. The following applies: kinase assay; read-out: KDR.

In series [23] the target is T5, hp70S6K1 (RPS6KB1) (Homo sapiens, UniProt P23443).
T5 construct: purchased Cerep (LANCE kinase assay platform, contract assay)
Kind of series: Cerep LANCE kinase assay hp70S6K1 (S1 assay 31). It counts as biochemical. As to conditions: kinase assay; read-out: p70S6K1.

The subject of series [24] is ECFC/ADSC co-culture cell nuclei number. As to conditions: human.
For series [25], the system named is SUR2/Kir6.2. The following applies: read-out: SUR2/Kir6.2 inhibition IC50; cited from earlier work.
Setting [26] is: DLD-1, 72 h, read-out: DLD-1 viab. IC50.
The mark [27] stands for this setting: NCI-H716, read-out: GLP1 sec. EC50.
Setting [28] is: SW480, 72 h, read-out: SW480 viab. IC50.
[29] abbreviates: HCT-116, 72 h, read-out: HCT-116 viab. IC50.
Where [30] appears, read: Rattus norvegicus, INS-1E, read-out: Ins. sec. EC50.
[31] abbreviates: HCT-116, 72 h, read-out: HCT-116 (GSK3β) viab. IC50.
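Wherever 5mMGluc INS1E SecretionMod IC50/EC50 is given: secreted insulin quantified by homogeneous immunoassay.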

T4 sequence (P35968 20-1356): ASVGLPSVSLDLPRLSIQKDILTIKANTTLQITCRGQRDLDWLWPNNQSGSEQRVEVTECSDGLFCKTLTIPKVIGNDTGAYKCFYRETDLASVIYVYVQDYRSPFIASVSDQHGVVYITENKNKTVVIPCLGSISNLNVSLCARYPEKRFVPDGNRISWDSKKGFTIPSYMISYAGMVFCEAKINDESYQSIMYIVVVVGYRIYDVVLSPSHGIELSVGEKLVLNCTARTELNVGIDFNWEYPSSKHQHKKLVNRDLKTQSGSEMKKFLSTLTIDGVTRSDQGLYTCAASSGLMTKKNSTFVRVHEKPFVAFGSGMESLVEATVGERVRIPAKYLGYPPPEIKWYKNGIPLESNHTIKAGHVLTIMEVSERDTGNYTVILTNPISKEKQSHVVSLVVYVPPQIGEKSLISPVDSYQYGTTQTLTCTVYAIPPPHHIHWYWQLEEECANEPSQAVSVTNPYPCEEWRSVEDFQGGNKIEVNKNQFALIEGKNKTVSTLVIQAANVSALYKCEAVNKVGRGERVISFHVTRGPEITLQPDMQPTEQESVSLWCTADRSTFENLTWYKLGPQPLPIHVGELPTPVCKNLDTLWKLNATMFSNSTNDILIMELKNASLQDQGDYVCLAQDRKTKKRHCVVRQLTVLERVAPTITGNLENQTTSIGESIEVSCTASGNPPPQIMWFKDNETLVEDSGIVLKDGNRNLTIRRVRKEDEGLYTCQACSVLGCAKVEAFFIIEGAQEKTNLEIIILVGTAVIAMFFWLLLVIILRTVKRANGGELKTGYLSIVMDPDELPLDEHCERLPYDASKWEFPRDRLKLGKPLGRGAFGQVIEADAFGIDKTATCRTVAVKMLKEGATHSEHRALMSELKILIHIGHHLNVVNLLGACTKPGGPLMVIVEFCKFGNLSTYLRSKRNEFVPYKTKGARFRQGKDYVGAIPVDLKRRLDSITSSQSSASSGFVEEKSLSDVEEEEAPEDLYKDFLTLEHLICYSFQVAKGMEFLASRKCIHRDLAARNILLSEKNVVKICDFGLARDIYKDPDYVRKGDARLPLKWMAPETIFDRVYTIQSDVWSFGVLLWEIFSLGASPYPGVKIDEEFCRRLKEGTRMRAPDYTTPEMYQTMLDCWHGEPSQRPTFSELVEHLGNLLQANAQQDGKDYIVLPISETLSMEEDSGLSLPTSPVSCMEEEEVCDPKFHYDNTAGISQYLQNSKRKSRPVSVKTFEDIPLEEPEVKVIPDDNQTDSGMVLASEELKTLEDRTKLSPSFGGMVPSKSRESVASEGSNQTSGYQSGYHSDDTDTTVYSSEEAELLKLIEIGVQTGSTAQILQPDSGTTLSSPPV
T1 sequence (P36888 27-993): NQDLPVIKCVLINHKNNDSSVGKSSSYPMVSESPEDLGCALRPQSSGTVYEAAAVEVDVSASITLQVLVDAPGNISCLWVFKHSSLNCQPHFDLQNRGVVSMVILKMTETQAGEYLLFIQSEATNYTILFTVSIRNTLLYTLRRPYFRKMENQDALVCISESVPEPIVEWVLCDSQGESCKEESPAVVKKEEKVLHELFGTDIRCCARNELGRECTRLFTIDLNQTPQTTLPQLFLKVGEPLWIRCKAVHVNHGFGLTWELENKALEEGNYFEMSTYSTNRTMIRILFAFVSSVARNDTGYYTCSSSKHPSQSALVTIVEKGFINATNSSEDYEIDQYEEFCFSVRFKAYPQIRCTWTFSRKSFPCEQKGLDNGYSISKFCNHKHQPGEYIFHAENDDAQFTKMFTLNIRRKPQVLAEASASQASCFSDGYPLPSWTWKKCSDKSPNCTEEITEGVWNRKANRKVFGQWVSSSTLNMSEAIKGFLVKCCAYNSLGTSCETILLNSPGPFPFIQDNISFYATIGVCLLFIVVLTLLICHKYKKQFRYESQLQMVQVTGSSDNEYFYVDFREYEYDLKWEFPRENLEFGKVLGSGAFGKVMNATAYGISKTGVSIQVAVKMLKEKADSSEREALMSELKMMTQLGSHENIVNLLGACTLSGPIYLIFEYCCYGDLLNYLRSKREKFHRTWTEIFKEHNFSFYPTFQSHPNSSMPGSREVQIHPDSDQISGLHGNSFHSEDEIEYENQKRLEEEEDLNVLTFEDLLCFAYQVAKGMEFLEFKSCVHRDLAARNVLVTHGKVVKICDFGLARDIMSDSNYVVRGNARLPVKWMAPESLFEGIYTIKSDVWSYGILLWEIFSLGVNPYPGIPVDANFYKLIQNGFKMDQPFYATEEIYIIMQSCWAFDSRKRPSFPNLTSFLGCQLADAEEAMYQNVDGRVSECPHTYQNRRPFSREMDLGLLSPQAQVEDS
T3 sequence (P49841 whole entry): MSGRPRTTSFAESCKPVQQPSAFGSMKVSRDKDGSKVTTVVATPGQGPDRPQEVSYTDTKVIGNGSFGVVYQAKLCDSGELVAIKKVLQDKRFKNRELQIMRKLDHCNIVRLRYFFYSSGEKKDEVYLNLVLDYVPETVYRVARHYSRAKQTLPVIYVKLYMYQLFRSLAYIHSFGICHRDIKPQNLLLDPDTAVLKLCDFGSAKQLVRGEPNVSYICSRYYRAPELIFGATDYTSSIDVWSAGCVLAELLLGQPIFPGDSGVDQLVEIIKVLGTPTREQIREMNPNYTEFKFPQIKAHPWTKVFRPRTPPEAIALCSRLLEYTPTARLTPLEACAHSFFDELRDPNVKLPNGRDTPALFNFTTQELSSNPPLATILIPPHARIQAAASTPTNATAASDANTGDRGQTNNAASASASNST
T2 sequence (O60674 whole entry): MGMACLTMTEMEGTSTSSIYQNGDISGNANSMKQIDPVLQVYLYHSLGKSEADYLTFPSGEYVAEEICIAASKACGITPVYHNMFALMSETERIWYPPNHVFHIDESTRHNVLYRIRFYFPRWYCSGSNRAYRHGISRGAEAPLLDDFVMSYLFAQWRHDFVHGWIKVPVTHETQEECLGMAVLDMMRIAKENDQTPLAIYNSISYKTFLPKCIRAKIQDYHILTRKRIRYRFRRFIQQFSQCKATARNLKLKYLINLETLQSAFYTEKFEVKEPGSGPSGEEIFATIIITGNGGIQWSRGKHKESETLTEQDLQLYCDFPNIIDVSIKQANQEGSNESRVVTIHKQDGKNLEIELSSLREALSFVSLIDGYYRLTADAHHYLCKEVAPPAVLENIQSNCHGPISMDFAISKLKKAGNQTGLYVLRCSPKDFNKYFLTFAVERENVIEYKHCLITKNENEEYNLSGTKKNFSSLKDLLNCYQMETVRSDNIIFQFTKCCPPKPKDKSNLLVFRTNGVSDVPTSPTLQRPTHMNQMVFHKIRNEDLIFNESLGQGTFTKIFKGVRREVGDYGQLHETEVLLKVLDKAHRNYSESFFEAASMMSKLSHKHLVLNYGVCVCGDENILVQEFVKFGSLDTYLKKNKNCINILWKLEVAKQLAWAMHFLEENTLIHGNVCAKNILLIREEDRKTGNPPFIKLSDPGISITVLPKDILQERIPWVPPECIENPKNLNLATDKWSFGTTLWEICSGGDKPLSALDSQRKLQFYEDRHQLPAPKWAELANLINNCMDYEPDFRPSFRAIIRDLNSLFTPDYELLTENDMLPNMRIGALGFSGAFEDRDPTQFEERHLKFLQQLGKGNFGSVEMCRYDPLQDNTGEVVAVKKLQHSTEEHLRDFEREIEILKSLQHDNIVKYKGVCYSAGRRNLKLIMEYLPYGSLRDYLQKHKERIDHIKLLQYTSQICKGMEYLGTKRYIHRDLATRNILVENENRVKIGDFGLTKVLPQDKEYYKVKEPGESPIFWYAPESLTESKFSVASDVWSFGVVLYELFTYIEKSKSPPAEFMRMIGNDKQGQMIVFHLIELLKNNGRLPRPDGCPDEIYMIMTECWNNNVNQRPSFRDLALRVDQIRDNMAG
T5 sequence (P23443 whole entry): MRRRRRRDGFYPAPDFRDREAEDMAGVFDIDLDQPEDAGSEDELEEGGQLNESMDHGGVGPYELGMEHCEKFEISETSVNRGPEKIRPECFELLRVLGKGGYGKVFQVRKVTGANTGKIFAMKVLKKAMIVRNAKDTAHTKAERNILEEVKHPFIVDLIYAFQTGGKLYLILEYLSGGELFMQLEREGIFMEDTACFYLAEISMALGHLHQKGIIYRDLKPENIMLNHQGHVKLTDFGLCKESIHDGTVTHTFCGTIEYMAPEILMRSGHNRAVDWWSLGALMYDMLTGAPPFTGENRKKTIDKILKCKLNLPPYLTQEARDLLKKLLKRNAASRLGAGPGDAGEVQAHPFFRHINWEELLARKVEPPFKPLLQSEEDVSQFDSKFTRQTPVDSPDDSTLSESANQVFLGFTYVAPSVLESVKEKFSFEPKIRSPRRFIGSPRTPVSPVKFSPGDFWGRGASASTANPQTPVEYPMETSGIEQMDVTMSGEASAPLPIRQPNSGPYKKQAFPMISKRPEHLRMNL

On to `[H]/N=C(\N/C(=N/[H])NCCCCCCNC(=N)NC(=N)Nc1ccc(Cl)cc1)Nc1ccc(Cl)cc1` [Chlorhexidine], for which, in series [1] (AE OSTEONECROSIS), the “Adjusted Z-Score” value is given as -2.347, the “# of Specific AE Occurrence With Drug A With Drug B” value is 31 and the “# of Specific AE Occurrence With Drug A Without Drug B” value is reported as 899.

As for `COc1cccc2c1C(=O)c1c(O)c3c(c(O)c1C2=O)C[C@@](O)(C(=O)CO)C[C@@H]3O[C@H]1C[C@H](N)[C@H](O)[C@H](C)O1` [Doxorubicin], in [1] (AE BONE DISORDER), the “# of Specific AE Occurrence With Drug A With Drug B” value is 49 and the “# of Specific AE Occurrence With Drug A Without Drug B” value is on record as 912.

Take `N[C@@H](Cc1ccc(N(CCCl)CCCl)cc1)C(=O)O` [Melphalan]: the IC50 in [2] (basal, DLD-1, read-out: Basal_Viability ATP DLD-1) is greater than 20 µM; in [6] (basal, SW480, read-out: Basal_Viability ATP SW480), greater than 20 µM; in [7] (HCT-116, basal, HCT116, read-out: Basal_Viability ATP HCT116), greater than 20 µM; in [9] (HCT-116, HCT116 pretreated with GSK3b inhibitor, read-out: GSK3b inh pretreated_Viability ATP HCT116), 15.4 µM. Moreover, the EC50 in series [3] (S2 Table, 20 = no response at highest concentration) was 5.36 µM; in series [4] (NCI-H716, read-out: GLP 1 Secretion), greater than 10 µM; in series [5] (C2C12, read-out: Wnt Pathway) it was greater than 10 µM; in series [8] (Rattus norvegicus, INS-1E; read-out: Insulin Secretion), greater than 10 µM. For the same molecule, the “Adjusted Z-Score” value in series [1] (AE BONE DISORDER) is on record as -3.0915; in series [1] (AE OSTEOMYELITIS) it was -3.729; in [1] (AE OSTEONECROSIS OF JAW) it was -3.716; in series [1] (AE OSTEONECROSIS), -3.771. Besides, the “# of Specific AE Occurrence With Drug A With Drug B” value in series [1] (AE BONE DISORDER) is on record as 0; in [1] (AE OSTEOMYELITIS), 9; in series [1] (AE OSTEONECROSIS OF JAW), 17; in series [1] (AE OSTEONECROSIS), 1. For the same molecule, the “# of Specific AE Occurrence With Drug A Without Drug B” value in series [1] (AE BONE DISORDER) is 731; in series [1] (AE OSTEOMYELITIS), 479; in series [1] (AE OSTEONECROSIS OF JAW) it was 557; in series [1] (AE OSTEONECROSIS), 786.

With `Clc1ccc2c(c1)CCc1cccnc1C2=C1CCNCC1` [NCGC00159325-05], the “hNCI-H716 GLP1 Secretion IC50/EC50” value in [4] (assay number 12) was greater than 40 µM. Further, the “mSTC-1 GLP1 Secretion IC50/EC50” value in series [10] is greater than 40 µM. Besides, the “5mMGluc_INS1E SecretionMod IC50/EC50” value in series [8] (assay number 8; 5 mM glucose) is 7.105 µM. Further, the “0.1mMGluc_INS1E FluxOR IC50/EC50” value in series [11] (assay number 10, 0.1 mM glucose) is greater than 33.3333 µM. In addition, the “0.1mMGluc_INS1E SecretionMod Act IC50/EC50” value in series [12] is given as greater than 33.33 µM.

Turning to `COCc1c(C(C)C)nc(C(C)C)c(/C=C/[C@@H](O)C[C@@H](O)CC(=O)O)c1-c1ccc(F)cc1` [cerivastatin, reference compound], the IC50 in series [2] (setting [26]) was determined as 2.5 µM; in [2] (DLD-1, read-out: Basal_Viability ATP DLD-1) it was 2.51 µM; in series [13] (read-out: Anti-Angio IC50), 0.089 µM; in series [13] (read-out: Anti-Angiogenesis), 0.0894 µM; in [14] (SNU-C1, 72 h, read-out: SNU-C1 viab. IC50) it was 1.9 µM; in [14] (SNU-C1, read-out: Basal_Viability ATP SNU-C1) it was 1.87 µM. Besides, the IC50 in series [15] was greater than 20 µM; in series [17], greater than 20 µM; in series [18], greater than 20 µM; in series [6] (setting [28]), 0.14 µM; in [6] (SW480, read-out: Basal_Viability ATP SW480), 0.143 µM; in series [19] (HT-29, 72 h, read-out: HT-29 viab. IC50), 1.2 µM. Moreover, the IC50 in series [19] (HT-29, read-out: Basal_Viability ATP HT-29) turned out to be 1.21 µM; in series [20] (72 h, read-out: RKO viab. IC50), 1 µM; in series [20] (read-out: Basal_Viability ATP RKO), 1.01 µM; in series [7] (setting [29]), 0.24 µM; in [7] (HCT-116, read-out: Basal_Viability ATP HCT116), 0.24 µM; in series [21] (COLO 320, 72 h, read-out: Colo320 viab. IC50), 1.9 µM. Besides, the IC50 was 1.92 µM in [21] (COLO 320, read-out: Basal_Viability ATP Colo 320); greater than 20 µM in [22]; 0.053 µM in series [9] (setting [31]); 0.0529 µM in [9] (HCT-116, read-out: GSK3b inh pretreated_Viability ATP HCT116); greater than 20 µM in series [23]. Further, the EC50 in series [3] is greater than 10 µM; in series [4] (setting [27]) it was greater than 10 µM; in [5] (C2C12, read-out: Wnt pot. EC50), 19.9 µM; in [8] (setting [30]) it was greater than 10 µM. Besides, the “fold potency difference KRAS mutant lines SW480 and HCT116 vs. KRAS wild-type lines Colo320 and SNU-C1” value in series [16] is recorded as 5–10 fold. In [24], the “cytotoxicity IC50 relative to IC50 for inhibition of endothelial cord formation” value is reported as 2–3 fold.

For `CCCNCC(O)COc1ccccc1C(=O)CCc1ccccc1` (stereo not shown) [propafenone, reference compound], the IC50 in series [2] (setting [26]) is greater than 20 µM; in series [13] (read-out: Anti-Angio IC50) it was greater than 10 µM; in series [25] it was 2.2 µM; in series [6] (setting [28]), greater than 20 µM; in series [7] (setting [29]) it was greater than 20 µM; in [11] (Rattus norvegicus, INS-1E, read-out: K+ channel assay IC50), 5.4 µM. In [9] (setting [31]), the IC50 was greater than 20 µM. The EC50 in [3] is greater than 10 µM; in series [4] (setting [27]), greater than 10 µM; in series [8] (setting [30]), 4.9 µM; in series [8] (Rattus norvegicus, INS-1E, read-out: Insulin Secretion), 4.92 µM.

B1: Pegfilgrastim: Drug A generic name in the FAERS table (protein, UniProt P09919 31-207, looked up)
Granulocyte …: TPLGPASSLPQSFLLKCLEQVRKIQGDGAALQEKLVSECATYKLCHPEELVLLGHSLGIPWAPLSSCPSQALQLAGCLSQLHSGLFLYQGLLQALEGISPELGPTLDTLQLDVADFATTIWQQMEELGMAPALQPTQGAMPAFASAFQRRAGGVLVASHLQSFLEVSYRVLRHLAQP
modifications: pegfilgrastim; PEG; N-terminal Met
B1: in [1] (AE BONE PAIN), the “Adjusted Z-Score” value is -2.755, the “# of Specific AE Occurrence With Drug A With Drug B” value was 13 and the “# of Specific AE Occurrence With Drug A Without Drug B” value is recorded as 641.
